Test results reported in article PMC7136958, “Targeting the pregnane X receptor using microbial metabolite mimicry” (EMBO Molecular Medicine, 2020).

How the values were obtained:
[1] = biological target: T1, PXR (Homo sapiens, UniProt O75469); assay: PXR reporter (p3A4-luc luciferase) assay in LS180 cells transiently transfected with wild-type PXR; details: for FOLD INDUCTION of PXR reporter luciferase activity: 24 h, over UT
T1 sequence (O75469 1-434): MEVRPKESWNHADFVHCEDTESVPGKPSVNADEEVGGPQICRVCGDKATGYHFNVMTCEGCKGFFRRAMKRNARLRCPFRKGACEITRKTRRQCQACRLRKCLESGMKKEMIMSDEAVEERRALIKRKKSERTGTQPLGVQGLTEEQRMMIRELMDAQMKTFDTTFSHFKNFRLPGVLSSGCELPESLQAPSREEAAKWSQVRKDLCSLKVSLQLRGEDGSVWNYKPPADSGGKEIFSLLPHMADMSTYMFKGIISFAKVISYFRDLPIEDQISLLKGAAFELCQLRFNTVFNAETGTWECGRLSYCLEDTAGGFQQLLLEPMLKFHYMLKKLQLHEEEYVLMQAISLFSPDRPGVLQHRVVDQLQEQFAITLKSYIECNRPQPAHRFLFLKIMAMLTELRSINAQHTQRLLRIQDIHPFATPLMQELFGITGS
Method: Incubations were performed in four technical replicates. After the treatments, cells were lysed and luciferase activity was measured on Tecan Infinite M200 Pro plate reader (Schoeller Instruments, Prague, Czech Republic). The data are expressed as fold induction ± SD of luciferase activity over the control cells (agonistic mode—in the absence of a model ligand) or as a percentage of maximal activation ± SD (antagonistic mode—in the presence of a model ligand). […] For all the transfection experiments, specifically multiplexed transfections, the control wells were mock‐transfected ([…]). However, to exclude non‐specific binding of PXR (or other factors) upstream of the luciferase gene within non‐PXR‐binding elements, we performed pilot experiments in different cell passages (P11, P14, and P17) of LS174T cells using a mock luciferase plasmid (luciferase not containing an upstream PXR‐binding element of the CYP3A4 promoter).

[2] = biological target: T2, AhR (Homo sapiens, UniProt P35869); assay: AhR reporter assay, HepG2 cells stably expressing pCYP1A1 luciferase (AZ-AHR); type: cell-based
T2 construct: endogenous in cells; host or cells: AZ-AHR (HepG2)
T2 sequence (P35869 11-848): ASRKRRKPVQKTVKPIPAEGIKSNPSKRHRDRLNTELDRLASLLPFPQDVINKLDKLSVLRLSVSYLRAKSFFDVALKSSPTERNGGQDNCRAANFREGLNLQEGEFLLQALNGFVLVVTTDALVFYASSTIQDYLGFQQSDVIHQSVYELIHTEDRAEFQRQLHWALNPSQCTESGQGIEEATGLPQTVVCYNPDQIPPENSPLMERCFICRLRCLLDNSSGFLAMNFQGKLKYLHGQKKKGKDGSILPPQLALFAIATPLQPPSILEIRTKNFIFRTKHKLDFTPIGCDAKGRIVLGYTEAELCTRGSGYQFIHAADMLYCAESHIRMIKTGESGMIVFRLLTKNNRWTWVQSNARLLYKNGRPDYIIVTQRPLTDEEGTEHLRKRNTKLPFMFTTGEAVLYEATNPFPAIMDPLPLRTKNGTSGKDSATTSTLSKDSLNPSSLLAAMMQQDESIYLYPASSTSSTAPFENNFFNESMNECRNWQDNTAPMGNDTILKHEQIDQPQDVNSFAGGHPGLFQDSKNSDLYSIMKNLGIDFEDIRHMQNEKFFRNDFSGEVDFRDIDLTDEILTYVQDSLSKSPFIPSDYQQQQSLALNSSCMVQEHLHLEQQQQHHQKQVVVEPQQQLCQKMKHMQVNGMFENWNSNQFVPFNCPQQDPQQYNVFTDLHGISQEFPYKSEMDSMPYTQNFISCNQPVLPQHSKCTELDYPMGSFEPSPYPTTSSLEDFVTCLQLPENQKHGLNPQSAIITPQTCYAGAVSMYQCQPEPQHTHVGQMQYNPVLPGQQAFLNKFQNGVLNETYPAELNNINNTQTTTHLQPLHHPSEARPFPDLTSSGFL
Method: Incubations were performed in four technical replicates.

[3] = AZ-AHR cells, 1 nM, fold vs DMSO
[4] = AZ-AHR cells, 10 nM, fold vs DMSO
[5] = AZ-AHR cells, 100 nM, fold vs DMSO
[6] = AZ-AHR cells, 1µM, fold vs DMSO
[7] = AZ-AHR cells, 10 µM, fold vs DMSO
[8] = LS180, read-out: FOLD INDUCTION of PXR reporter luciferase activity

Row | Compound | aver (mean luciferase signal of H1-H4) ([1]; 1 nM) | FOLD INDUCTION of PXR reporter luciferase activity ([1]; 1 nM) [fold] | aver (mean luciferase signal of H1-H4) ([1]; 10 nM) | FOLD INDUCTION of PXR reporter luciferase activity ([1]; 10 nM) [fold] | aver (mean luciferase signal of H1-H4) ([1]; 100 nM) | FOLD INDUCTION of PXR reporter luciferase activity ([1]; 100 nM) [fold] | aver (mean luciferase signal of H1-H4) ([1]; 1 uM) | FOLD INDUCTION of PXR reporter luciferase activity ([1]; 1 uM) [fold] | aver (mean luciferase signal of H1-H4) ([1]; 10 uM) | FOLD INDUCTION of PXR reporter luciferase activity ([1]; 10 uM) [fold] | aver (mean luciferase signal of H1-H4) ([1]; 25 uM) | FOLD INDUCTION of PXR reporter luciferase activity ([1]; 25 uM) [fold] | AhR activation (in words) [2] | FOLD INDUCTION (AZ-AHR luciferase) [2, 3] [fold] | FOLD INDUCTION (AZ-AHR luciferase) [2, 4] [fold] | FOLD INDUCTION (AZ-AHR luciferase) [2, 5] [fold] | FOLD INDUCTION (AZ-AHR luciferase) [2, 6] [fold] | FOLD INDUCTION (AZ-AHR luciferase) [2, 7] [fold] | further results
1 | CC#CC(O)(c1ccncc1)c1cc2ccccc2n1S(=O)(=O)c1ccccc1 (racemic) [FKK3] | 5303.8 | 2.5 | 3556.8 | 1.7 | 7075.5 | 3.3 | 50228.8 | 23.5 | 65270.5 | 30.5 | 57813.0 | 27.0 | variable degrees of dose‐dependent AhR activation profiles | 0.8 | 0.7 | 0.9 | 1.1 | 5.3 | 
2 | O=S(=O)(c1ccccc1)n1c(C(O)(Cc2cc3ccccc3[nH]2)c2ccncc2)cc2ccccc21 (racemic) [FKK7] | 4342.5 | 1.1 | 4393.8 | 1.2 | 6280.8 | 1.7 | 60156.8 | 15.8 | 84023.3 | 22.1 | 80527.0 | 21.2 | variable degrees of dose‐dependent AhR activation profiles | 0.746 | 0.738 | 0.7 | 3.6 | 75.5 | 
3 | O=S(=O)(c1ccccc1)n1c(C(O)Cc2cc3ccccc3[nH]2)cc2ccccc21 (racemic) [FKK8] | 3847.5 | 1.0 | 4121.3 | 1.1 | 8608.8 | 2.3 | 58017.5 | 15.3 | 99864.5 | 26.3 | 75044.8 | 19.7 | variable degrees of dose‐dependent AhR activation profiles | 0.6 | 0.7 | 1.1 | 2.3 | 40.8 | 
4 | OC(c1ccncc1)(c1cc2ccccc2[nH]1)c1cc2ccccc2[nH]1 [FKK2] | 2792.0 | 1.3 | 2989.5 | 1.4 | 3008.8 | 1.4 | 7365.5 | 3.4 | 41425.5 | 19.4 | 32321.0 | 15.1 |  | 0.9 | 0.9 | 2.1 | 15.0 | 467.5 | AhR activation ([2]; 10 μM): > 100 fold
5 | OC(Cc1cc2ccccc2[nH]1)(c1ccncc1)c1cc2ccccc2[nH]1 (stereo not drawn) [FKK10] | 4648.0 | 1.3 | 3990.3 | 1.1 | 4278.0 | 1.2 | 3689.5 | 1.1 | 16756.3 | 4.8 | 52110.3 | 15.0 | variable degrees of dose‐dependent AhR activation profiles | 0.5 | 0.318 | 0.8 | 1.3 | 21.9 | 
6 | Cc1[nH]c2ccccc2c1C(c1c(C)[nH]c2ccccc12)c1c(C)[nH]c2ccccc12 [FKK999, reference compound] | 2509.3 |  | 3525.3 |  | 5905.5 |  | 26021.5 |  | 42646.5 |  | 44375.0 |  | variable degrees of dose‐dependent AhR activation profiles |  |  |  |  |  | aver (mean luciferase signal of H1-H4) ([1]; 50 uM): 44986.8; fold induction at 0.001 µM [1, 8]: 1.39; fold induction at 0.01 µM [1, 8]: 1.95; fold induction at 0.1 µM [1, 8]: 3.27; fold induction at 1 µM [1, 8]: 14.4; fold induction at 10 µM [1, 8]: 23.6; fold induction at 25 µM [1, 8]: 24.5; fold induction at 50 µM [1, 8]: 24.9; PXR activation (in words) ([1]; cell-based transactivation): activated PXR; fold induction at 24 h, 0.001 µM ([2]; human, AZ-AHR cells, 1 nM, fold vs DMSO): 1; fold induction at 24 h, 0.01 µM ([2]; human, AZ-AHR cells, 10 nM, fold vs DMSO): 1; fold induction at 24 h, 0.1 µM ([2]; human, AZ-AHR cells, 100 nM, fold vs DMSO): 3.5; fold induction at 24 h, 1 µM ([2]; human, AZ-AHR cells, 1µM, fold vs DMSO): 10.2; fold induction at 24 h, 10 µM ([2]; human, AZ-AHR cells, 10 µM, fold vs DMSO): 28.2
